Measured values from patent US20240309365A1, “MODULATING TRANSCRIPTIONAL CONDENSATES” (Whitehead Institute for Biomedical Research, priority 2020, published 2024).
Each block holds one molecule with its values, some of them ahead of it. Numbered stars: 1 amine (or outer) side, 2 acyl side, 3 side chain; on linkers, the order of the positions; unused ones are H or OH. Bridge positions count the residues as written; N and C are the ends. Square brackets hold non-standard residues; d marks the D form. Peptide text beside a SMILES is read from it. I, II: the chains in the order shown. Actinocin(9to1) = Cc1c2oc3c(C)ccc(C(=O)[*:1])c3nc-2c(C(=O)[*:2])c(N)c1=O; NMeV = CN[C@H](C(=O)O)C(C)C; Sar = CNCC(=O)O

Key:
[1] = test system: Med1-GFP condensates in mESCs; experiment: Condensate size in Med1-GFP mESCs after transcription inhibition; format: cell-based, mouse; conditions: 30 minutes; 100 μM DRB or 1 μM Actinomycin-D; 3D super-resolution microscopy
Procedure: (§1) For small molecule inhibition experiments, cells were treated with 100 μM DRB (Sigma), or 1 μM Actinomycin-D (Sigma) in 2i media (detailed above) for 30 minutes, then imaged. For wash-out experiments, media was replaced with fresh 2i media and cells were allowed to recover for 1 hour, then the cells were imaged.
Cells with endogenously-tagged Med1-GFP (Sabari et al., 2018) were plated on glass-bottom dishes (Mattek) coated with poly-L-ornithine (Sigma) and laminin (ThermoFisher). Mock (DMSO) and treated cells were imaged on a LSM 880 Confocal Microscope with Airyscan to obtain super-resolution z-stacks for at least 8 different fields containing multiple cells. For quantification, a manual threshold was applied equally across all conditions to remove background, and the size of Med1-GFP puncta was quantified in 3D using the 3D object counter plugin (Fiji/ImageJ).

[2] = target: T1, MED1-IDR (Homo sapiens, UniProt Q15648); experiment: In vitro droplet assay with MED1-IDR-GFP; format: biochemical; conditions: alternative polyanions instead of RNA
T1 construct: Amino acids included; 6xHIS; made in house; host or cells: LOBSTR cells (E. coli), pET plasmid, Ni-NTA purification
Procedure: Charge-balance calculations were performed (FIGS. 2, 9, 10 and 11) employing the following method. Net protein charge per molecule was calculated as Cp=#(R, K)−#(D, E) for the relevant sequence including the GFP tag. RNA charge per molecule was calculated as Cr=−(# […]), assuming an approximate charge of −1 per nucleotide (Lin et al., 2019). Next, the charge balance ratio was computed at a particular RNA and protein concentration as:
The effective concentration of MED1-IDR in the assays was 1000 nM. The results were not quantitatively affected by inclusion/exclusion of the partial charge on Histidine residues, partly due to their low frequency on the protein sequences. For Heparin, a charge of roughly −3 per monomer was employed (Lin et al., 2020) and for single-stranded DNA, a charge of −1 per nt was employed. The fit is quantified by calculating Pearson correlation coefficient (r) was calculated between the median droplet partition value at different concentrations and the relevant charge-balance ratios and reported in FIGS. 2, 9, 10, and 11. A higher correlation implies that experimental data follow a similar qualitative trend as the estimated charge-balance curves. The code for performing these calculations are available at: […]

[3] = test system: reconstituted mammalian transcription system (Pol II, general transcription factors, Mediator, Gal4); experiment: Reconstituted in vitro transcription assay (droplets and qRT-PCR output); format: biochemical; conditions: 2 mM NTPs, 200 mM NaCl, 500 nM heparin, spermine at concentrations predicted to balance charge; for partitioning of template DNA into droplets: Cy3-labeled template DNA; for droplet area: added to the transcription reaction; for transcription (levels of RNA synthesis): qRT-PCR of template-derived RNA
Procedure: For the size analysis of droplets formed in the reconstituted transcription assays (FIG. 3), brightfield images were subtracted by a median-filtered image (px=21), and droplets were manually segmented and their areas measured using ImageJ.
The reconstituted in vitro transcription by RNA polymerase II was performed as previously described (Flores et al., 1992; LeRoy et al., 2008, 2019; Orphanides et al., 1998) with some modifications. A 1000 bp template DNA (unlabeled or Cy-3 labeled at 3′ end) containing adenovirus major late promoter, five Gal4 binding sites, TATA-box sequence and 561 bp from eGFP sequence was used. First, pre-initiation complex was assembled at RT for 15 min by mixing the following components: 50 nM RNA polymerase II enriched for hypophosphorylated CTD, 50 nM general transcription factors (TFIIA-B-D-E-F-H), and 5.75 nM template DNA, in a buffer containing 10 mM HEPES pH 7.5, 65 mM NaCl, 6.25 mM MgCl2, and 6.25 mM Sodium butyrate. Next, 10 nM Mediator complex and 10 nM GAL4 (Gal4 DNA binding domain fused to activation domain of VP16) were added to the reaction. Last, nucleotide mix containing 0.375 mM ATP, CTP, UTP, GTP (Invitrogen), 0.01 U RNase Inhibitor (Invitrogen), 1.25% PEG-8000 were added together with one of the following: a) various amounts of purified exogenous Pou5f1 RNA (0-500 nM) b) spermine (Sigma, S4264) c) extra NTPs (Invitrogen) d) extra NaCl e) heparin (Sigma, H3393). The reaction was incubated at 30° C. for 2 hr. RNA isolation was performed using RNeasy kit (Qiagen) by including a spike-in RNA control and an RNA carrier. Purified RNAs were treated with ezDNase (Invitrogen) for 30 min at 37° C. to eliminate the template DNA. Reverse transcription was performed using Superscript IV (Invitrogen) and qPCR was performed with SYBR Green Real Time PCR master mix (Invitrogen) to quantify the template derived transcriptional output. The Ct values of the reactions were normalized to the spike-in RNA control. The concentration of template derived transcriptional output was calculated by using a standard curve of qRT-PCR Ct values generated by known amounts of serially diluted GFP RNA.
To visualize the droplets formed in the reconstituted transcription assay, using a micropipette (2-20 μL), 5 μL of the reactions were loaded onto a homemade chamber, which was prepared by attaching coverslips to a glass slide by parallel strips of double-sided tape (Sabari et al., 2018). After the droplets were settled on the glass coverslip, the images were collected by using RPI Spinning Disk confocal microscope with a 100× objective. To account for camera artifacts in the images, brightfield Images of droplets from reconstituted assays were subjected to a white tophat filter with a disk element radius of 21 using the MorphoLib plugin in ImageJ, then a Gaussian filter (sigma=1) was applied.

[4] = test system: Med19 condensates in mESCs; experiment: Condensate lifetime in Med19-Halo mESCs by tcPALM; format: cell-based, mouse
Procedure: as §1
HaloTag was endogenously knocked into 5′-end of Med19 via homology-directed repair (HDR) in mouse embryonic stem cells (R1 mESCs). Three single-guide RNAs (sgRNAs) targeting+/−100 bps from the start codons of Med19 gene were designed using the web-based CRISPR Design tool (http://crispr.mit.edu) and integrated into a Streptococcus pyogenes Cas9 vector (Addgene #62988) for standard CRISPR/Cas9 editing. Single positive colonies were sorted by fluorescence-activated cell sorting (FACS) and validated under the microscope. […]
Photo-activation localization microscopy (PALM) imaging was performed using a Nikon Eclipse Ti microscope with a 100× oil immersion objective (NA 1.40) (Nikon, Tokyo, Japan). […] Med19-Halo cluster lifetimes were calculated as previously described using the qSR software (dark time tolerance=20 frames, min cluster size=50) (Andrews et al., 2018), and a cumulative distribution was generated using Prism software (GraphPad).

[5] = test system: T2, Mediator complex; experiment: In vitro droplet assay with purified Mediator complex; format: biochemical, human; conditions: 6-400 nM RNA added to 200 nM purified Mediator complex
T2 construct: Purification of Human Mediator Complex from HeLa Nuclear Extract; endogenous in cells; host or cells: HeLa nuclear extract, multi-step column purification
Procedure: HeLa nuclear protein extract (4 g) was prepared as described in (Dignam et al., 1983). Nuclear extract was dialyzed against BC100: BC buffer, pH 7.5+100 mM KCl (20 mM Tris-HCl, 20 mM B-Mercaptoethanol, 0.2 mM PMSF, 0.2 mM EDTA, 10% glycerol (v/v) and 100 mM KCl). The extract was fractionated on a phosphocellulose column (P11) with BC buffer containing 0.1, 0.3, 0.5 and 1M KCl. The Mediator complex eluted in the 0.5M KCL (BC500) fraction. This fraction was dialyzed against BC100 and loaded on a DEAE Cellulose column and sequentially fractionated with BC buffer containing 0.1, 0.3 and 0.5M KCl. […] This fraction was then directly loaded onto a DEAE-5 PW column (TSK) and eluted with a linear KCl gradient from 0.1 to 1M KCl in BC buffer. The Mediator complex eluted between 0.4 and 0.6M KCl. The fractions containing Mediator were pooled and dialyzed against BD700: BD buffer, (20 mM Hepes pH 7.5, 20 mM β-Mercaptoethanol, 0.2 mM PMSF, 0.2 mM EDTA, 10% glycerol, and 700 mM (NH4)2SO4). This fraction was then loaded onto a Phenyl-Sepharose Hydrophobic Interaction Chromatography (HIC) column and eluted with a linear reverse gradient from 0.7 to 0.025M (NH4)2SO4 in BD buffer. The Mediator complex eluted between 0.3 and 0.1M (NH4)2SO4. […]

T1 sequence (Q15648 948-1573): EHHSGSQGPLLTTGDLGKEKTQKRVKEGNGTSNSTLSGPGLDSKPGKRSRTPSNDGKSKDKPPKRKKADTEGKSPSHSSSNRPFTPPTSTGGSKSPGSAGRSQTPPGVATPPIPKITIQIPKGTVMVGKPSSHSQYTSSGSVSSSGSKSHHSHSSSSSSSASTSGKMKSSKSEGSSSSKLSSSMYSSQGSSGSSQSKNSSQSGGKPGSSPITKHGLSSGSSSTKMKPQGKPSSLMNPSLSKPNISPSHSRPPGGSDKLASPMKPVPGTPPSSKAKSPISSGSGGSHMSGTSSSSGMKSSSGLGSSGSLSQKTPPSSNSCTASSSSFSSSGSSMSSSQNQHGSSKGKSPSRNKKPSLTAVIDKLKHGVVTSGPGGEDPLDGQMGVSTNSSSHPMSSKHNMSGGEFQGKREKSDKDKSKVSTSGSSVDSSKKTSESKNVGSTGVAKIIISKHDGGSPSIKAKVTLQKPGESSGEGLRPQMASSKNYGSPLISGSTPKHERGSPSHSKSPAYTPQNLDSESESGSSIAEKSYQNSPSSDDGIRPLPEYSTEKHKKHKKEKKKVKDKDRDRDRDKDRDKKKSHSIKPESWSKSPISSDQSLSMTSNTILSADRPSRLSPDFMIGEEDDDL

Molecule: Cc1c2oc3c(C)ccc(C(=O)N[C@@H]4C(=O)N[C@H](C(C)C)C(=O)N5CCC[C@H]5C(=O)N(C)CC(=O)N(C)[C@@H](C(C)C)C(=O)O[C@@H]4C)c3nc-2c(C(=O)N[C@@H]2C(=O)N[C@H](C(C)C)C(=O)N3CCC[C@H]3C(=O)N(C)CC(=O)N(C)[C@@H](C(C)C)C(=O)O[C@@H]2C)c(N)c1=O [Actinomycin-D] (I: T[dV]P[Sar][NMeV] / II: T[dV]P[Sar][NMeV]; ester I:1-I:C, II:1-II:C; linker I:N-II:N via Actinocin(9to1))
increase in volume of Med1-GFP condensates [1]: ~2 fold

fit of MED1-IDR partitioning to the charge balance model [2]: charge balance model also held
Molecule: heparin
partitioning of template DNA into droplets [3]: reductions | droplet area [3]: reductions | transcription (levels of RNA synthesis) [3]: reductions

Molecule: [Cl-].[Na+] [NaCl]
partitioning of template DNA into droplets [3]: reductions | droplet area [3]: reductions | transcription (levels of RNA synthesis) [3]: reductions

Molecule: NCCCNCCCCNCCCN [spermine]
partitioning of template DNA into droplets [3]: increased | droplet area [3]: increased | transcription (levels of RNA synthesis) [3]: increased

Molecule: OC[C@H]1O[C@@H](n2cnc3cc(Cl)c(Cl)cc32)[C@H](O)[C@@H]1O [DRB]
increase in volume of Med1-GFP condensates [1]: ~2 fold | lifetime of Med19 condensates versus mock-treated cells ([4]; 100 μM DRB, 30 minutes, tcPALM): significantly longer lifetimes | lifetime of Med19 condensates after wash with fresh media ([4]; DRB-treated cells washed, 1 hour recovery): recovered to those of the mock-treated condition

B1: Trim28 enhancer RNA: enhancer RNA transcribed from the Trim28 super-enhancer, 594 nt, SEQ ID NO: 46 (nucleic acid)
chain: AAATCTTGGAGAGAGTAGGACCTGAGCTGTTTCCTATTTCTACTACTTCCATAGACATCCATGGGTCTCCTTTGGTTCTTACCTTAAACTGCAGTTCTAGAGGCTCTTCTGGGGTTGTAAACTGCCCTTCCCCAACTCAGGAGCTCCCATTCCCTCCCCTTCCTAAACTGGCCCTACTTGTTCGCTCTACTTTATCTTGCCAGGGGTTGTAACAGCCTCCAATCTGTCTTGGATCAGGAAGCAGTTTCCATGGGGTATTTTAAGTGTAAGTTCCCCGGTGAAATGGAAACAAAAAGAATAAGGTATTCTGGGGACAGTGTAGGCCCACTAGGGTGTAGCTTGTTTTGTAAACACAGGACCTGAGTTTTGGACTTTGCCCTGGATTGTACCTGTCCCAGTGGGTTACCTTAGATGACACTAGCTTCATAATGCAAGAGGAGGTTAAGATGCTGGCTAGCGTTACCCACTTTGAAGGTACTGGAAAAGGAAGACCTGATTTACCCAAAAGAGGGAGATCTCTGTGCTTCTACCGCTTTAATTTTTTTTTTCTTTTTTTAAATATTTTTGCAGGACTGGTCACTGTAACTTTTTCCC
modifications: 47
RNA concentration at which droplet sizes peaked [5]: 100 nM | effect on the size of Mediator/RNA droplets [5]: dose-dependent effect

B2: ssDNA: single-stranded DNA, 117 nt, SEQ ID NO: 51, alternative polyanion (nucleic acid)
DNA: GGTTCTGCCGCAGGTGGATCCGGTATGTCCACCGCCACGACAGTCGCCCCCGCGGGGATCCCGGCGACCCCGGGCCCTGTGAACCCACCCCCCCCGGAGGTCTCCAACCCCAGCAAG
modifications: DNA, backbone and methylation of C not given here
fit of MED1-IDR partitioning to the charge balance model [2]: charge balance model also held
